Test results as given in patent EP4768018A1, “TOPICAL GEL FOR JAK INHIBITOR AND USE THEREOF” (Prime Gene Therapeutics Co., Ltd., priority 2023, dated 2025).
In brackets after ≈: the same amount, converted by molar mass.

Legend:
[1] = Storage stability of Crystal Form III (NMR); assay type: physicochemical
Experimental: Add 15 mg of 2-{3-[3-amino-4-(7H-pyrrolo[2,3-d]pyrimidin-4-yl)-1H-pyrazol-1-yl]-1-(isopropylsulfonyl)azetidin-3-yl}acetonitrile to 3 mL of dioxane, heat to 40°C to dissolve and obtain a clear solution, filter, and allow the solution to crystallize by evaporation at 40°C to obtain Crystal Form III.

[2] = Solubility of crystal forms in 20% propylene glycol at 32°C; assay type: physicochemical
Experimental: (§1) Solubility Study of Various Crystal Forms
Solubility in 20% Propylene Glycol at 32°C (µg/mL)

[3] = Solubility of crystal forms at different pH (37°C, 24 h); assay type: physicochemical
Experimental: as §1
Solubility Measurement Results (37°C, 24 h)

[4] = Long-term (24 months) stability study of crystal forms; assay type: physicochemical; conditions: for stability study result in words: 24 months
Experimental: In accordance with the stability study guidelines issued by the China's National Medical Products Administration (NMPA), stability studies were conducted on Crystal Forms I, IIa, and IIb. Samples were packaged in pharmaceutical low-density polyethylene bags, and long-term stability (24 months) was evaluated.

[5] = Crystal form conversion (room temperature; in the gel formulation, XRPD); assay type: physicochemical; conditions: for crystal form of the active pharmaceutical ingredient in the final gel formulation: after 3 days, XRPD, FIG. 5 to FIG. 6
Experimental: Crystal Form IIa converts to Crystal Form IIb within 1 hour at room temperature (58.6% RH). During the preparation of topical gel formulation, Crystal Form I and Crystal Form IIb were respectively used as active pharmaceutical ingredients.

[6] = Transdermal test of crystal forms as topical gel in rats (permeation, drug content in skin by LC/MS/MS); assay type: in vivo, rat; conditions: topical gel according to the compositions of Example 1; FIG. 10A and FIG. 10B; Crystal Form I versus Crystal Form IIb
Experimental: Crystal Forms I and IIb were prepared into topical gel formulations according to the compositions of Example 1, and transdermal tests were immediately conducted to determine their respective transdermal rates.
Blood samples were collected at 0.25, 0.5, 1, 2, 4, 6, 8, and 24 hours after topical administration. Using a small animal anesthesia machine, 0.3 mL of whole blood was collected from the retro-orbital venous plexus under isoflurane anesthesia and placed in heparin anticoagulant tubes. Samples were centrifuged at 4°C, 4000 rpm for 5 minutes, plasma was transferred to centrifuge tubes, and stored at -80°C until analysis. Samples in plasma were extracted using protein precipitation, and the extract was analyzed by LC/MS/MS. After the test, the drug on skin was washed off, and the rat skin at administration site was excised, homogenized, and analyzed by LC/MS/MS for drug content in the skin. Table 4 Drug Concentration in Skin 24 h After Topical Administration

CC(C)S(=O)(=O)N1CC(CC#N)(n2cc(-c3ncnc4[nH]ccc34)c(N)n2)C1 [Crystal Form III, 2-{3-[3-amino-4-(7H-pyrrolo[2,3-d]pyrimidin-4-yl)-1H-pyrazol-1-yl]-1-(isopropylsulfonyl)azetidin-3-yl}acetonitrile Crystal Form III]
impurity formation ([1]; after storage, NMR): approximately 10%
stability ([1]; in words): poor stability

CC(C)S(=O)(=O)N1CC(CC#N)(n2cc(-c3ncnc4[nH]ccc34)c(N)n2)C1 [Crystal Form IIb, 2-{3-[3-amino-4-(7H-pyrrolo[2,3-d]pyrimidin-4-yl)-1H-pyrazol-1-yl]-1-(isopropylsulfonyl)azetidin-3-yl}acetonitrile Crystal Form IIb]
Solubility in 20% Propylene Glycol at 32°C ([2]; 10 min): 6.1 µg/mL (≈ 15.2 µM)
Solubility in 20% Propylene Glycol at 32°C ([2]; 30 min): 9.5 µg/mL (≈ 23.7 µM)
Solubility in 20% Propylene Glycol at 32°C ([2]; 1 h, 60 min): 10.8 µg/mL (≈ 27 µM)
Solubility in 20% Propylene Glycol at 32°C ([2]; 2 h, 120 min): 11.2 µg/mL (≈ 28 µM)
Solubility in 20% Propylene Glycol at 32°C ([2]; 18 h, 1080 min): 13.3 µg/mL (≈ 33.2 µM)
Solubility Conc. ([3]; pH 1.0, 1440 min): 149.9 µg/mL (≈ 374 µM)
Solubility Conc. ([3]; pH 2.0, 1440 min): 17.4 µg/mL (≈ 43.4 µM)
Solubility Conc. ([3]; pH 3.8, 1440 min): 0.9 µg/mL (≈ 2.25 µM)
Solubility Conc. ([3]; pH 4.5, 1440 min): 0.7 µg/mL (≈ 1.75 µM)
Solubility Conc. ([3]; pH 5.5, 1440 min): 0.5 µg/mL (≈ 1.25 µM)
Solubility Conc. ([3]; pH 6.8, 1440 min): 0.6 µg/mL (≈ 1.5 µM)
Solubility Conc. ([3]; pH 7.0, 1440 min): 0.8 µg/mL (≈ 2 µM)
Solubility Conc. ([3]; pH 8.0, 1440 min): 0.7 µg/mL (≈ 1.75 µM)
Appearance ([4]; 0 month): Off-white powder
Content ([4]; 0 month): 99.7%
Crystal Form ([4]; 0 month): IIb
Loss on Drying ([4]; 0 month): 0.36%
Related Substances Max Unknown Single Impurity ([4]; 0 month): 0.07%
Related Substances Total Impurity ([4]; 0 month): 0.38%
Appearance ([4]; 3 month): Off-white powder
Crystal Form ([4]; 3 month): IIb
Loss on Drying ([4]; 3 month): 0.36%
Related Substances Max Unknown Single Impurity ([4]; 3 month): 0.08%
Related Substances Total Impurity ([4]; 3 month): 0.38%
Content ([4]; 3 month, 131040 min): 99.7%
Appearance ([4]; 6 month): Off-white powder
Crystal Form ([4]; 6 month): IIb
Loss on Drying ([4]; 6 month): 0.39%
Related Substances Max Unknown Single Impurity ([4]; 6 month): 0.08%
Related Substances Total Impurity ([4]; 6 month): 0.37%
Content ([4]; 6 month, 263520 min): 99.6%
Appearance ([4]; 9 month): Off-white powder
Crystal Form ([4]; 9 month): IIb
Loss on Drying ([4]; 9 month): 0.34%
Related Substances Max Unknown Single Impurity ([4]; 9 month): 0.08%
Related Substances Total Impurity ([4]; 9 month): 0.38%
Content ([4]; 9 month, 394560 min): 99.5%
Appearance ([4]; 12 month): Off-white powder
Crystal Form ([4]; 12 month): IIb
Loss on Drying ([4]; 12 month): 0.30%
Related Substances Max Unknown Single Impurity ([4]; 12 month): 0.07%
Related Substances Total Impurity ([4]; 12 month): 0.37%
Content ([4]; 12 month, 525600 min): 99.6%
Appearance ([4]; 18 month): Off-white powder
Crystal Form ([4]; 18 month): IIb
Loss on Drying ([4]; 18 month): 0.31%
Related Substances Max Unknown Single Impurity ([4]; 18 month): 0.07%
Related Substances Total Impurity ([4]; 18 month): 0.39%
Content ([4]; 18 month, 789120 min): 99.6%
Appearance ([4]; 24 month): Off-white powder
Crystal Form ([4]; 24 month): IIb
Loss on Drying ([4]; 24 month): 0.32%
Related Substances Max Unknown Single Impurity ([4]; 24 month): 0.08%
Related Substances Total Impurity ([4]; 24 month): 0.39%
Content ([4]; 24 month, 1.0512e+06 min): 99.7%
stability study result in words [4]: good chemical stability
crystal form of the active pharmaceutical ingredient in the final gel formulation [5]: exclusively in form IIb

CC(C)S(=O)(=O)N1CC(CC#N)(n2cc(-c3ncnc4[nH]ccc34)c(N)n2)C1 [Crystal Form I, 2-{3-[3-amino-4-(7H-pyrrolo[2,3-d]pyrimidin-4-yl)-1H-pyrazol-1-yl]-1-(isopropylsulfonyl)azetidin-3-yl}acetonitrile Crystal Form I]
Solubility in 20% Propylene Glycol at 32°C ([2]; 10 min): 12.7 µg/mL (≈ 31.7 µM)
Solubility in 20% Propylene Glycol at 32°C ([2]; 30 min): 26.9 µg/mL (≈ 67.2 µM)
Solubility in 20% Propylene Glycol at 32°C ([2]; 1 h, 60 min): 35.8 µg/mL (≈ 89.4 µM)
Solubility in 20% Propylene Glycol at 32°C ([2]; 2 h, 120 min): 42.1 µg/mL (≈ 105 µM)
Solubility Conc. ([3]; pH 1.0, 1440 min): 464.2 µg/mL (≈ 1160 µM)
Solubility Conc. ([3]; pH 2.0, 1440 min): 37.8 µg/mL (≈ 94.4 µM)
Solubility Conc. ([3]; pH 3.8, 1440 min): 2.3 µg/mL (≈ 5.74 µM)
Solubility Conc. ([3]; pH 4.5, 1440 min): 1.8 µg/mL (≈ 4.49 µM)
Solubility Conc. ([3]; pH 5.5, 1440 min): 1.6 µg/mL (≈ 4 µM)
Appearance ([4]; 0 month): Off-white powder
Content ([4]; 0 month): 99.9%
Loss on Drying ([4]; 0 month): 0.08%
Related Substances Max Unknown Single Impurity ([4]; 0 month): 0.17%
Related Substances Total Impurity ([4]; 0 month): 0.58%
Appearance ([4]; 3 month): Off-white powder
Loss on Drying ([4]; 3 month): 0.06%
Related Substances Max Unknown Single Impurity ([4]; 3 month): 0.16%
Related Substances Total Impurity ([4]; 3 month): 0.57%
Content ([4]; 3 month, 131040 min): 100.1%
Appearance ([4]; 6 month): Off-white powder
Loss on Drying ([4]; 6 month): 0.08%
Related Substances Max Unknown Single Impurity ([4]; 6 month): 0.17%
Related Substances Total Impurity ([4]; 6 month): 0.57%
Content ([4]; 6 month, 263520 min): 100.0%
Appearance ([4]; 9 month): Off-white powder
Loss on Drying ([4]; 9 month): 0.11%
Related Substances Max Unknown Single Impurity ([4]; 9 month): 0.17%
Related Substances Total Impurity ([4]; 9 month): 0.57%
Content ([4]; 9 month, 394560 min): 99.8%
Appearance ([4]; 12 month): Off-white powder
Loss on Drying ([4]; 12 month): 0.09%
Related Substances Max Unknown Single Impurity ([4]; 12 month): 0.17%
Related Substances Total Impurity ([4]; 12 month): 0.55%
Content ([4]; 12 month, 525600 min): 99.9%
Appearance ([4]; 18 month): Off-white powder
Loss on Drying ([4]; 18 month): 0.12%
Related Substances Max Unknown Single Impurity ([4]; 18 month): 0.18%
Related Substances Total Impurity ([4]; 18 month): 0.62%
Content ([4]; 18 month, 789120 min): 99.7%
Appearance ([4]; 24 month): Off-white powder
Loss on Drying ([4]; 24 month): 0.10%
Related Substances Max Unknown Single Impurity ([4]; 24 month): 0.16%
Related Substances Total Impurity ([4]; 24 month): 0.59%
Content ([4]; 24 month, 1.0512e+06 min): 99.8%
stability study result in words [4]: good chemical stability
crystal form of the active pharmaceutical ingredient in the final gel formulation [5]: exclusively in form IIb
transdermal performance [6]: better transdermal performance

CC(C)S(=O)(=O)N1CC(CC#N)(n2cc(-c3ncnc4[nH]ccc34)c(N)n2)C1 [Crystal Form IIa, 2-{3-[3-amino-4-(7H-pyrrolo[2,3-d]pyrimidin-4-yl)-1H-pyrazol-1-yl]-1-(isopropylsulfonyl)azetidin-3-yl}acetonitrile Crystal Form IIa]
Appearance ([4]; 0 month): Off-white powder
Content ([4]; 0 month): 99.8%
Crystal Form ([4]; 0 month): IIa
Loss on Drying ([4]; 0 month): 0.06%
Related Substances Max Unknown Single Impurity ([4]; 0 month): 0.06%
Related Substances Total Impurity ([4]; 0 month): 0.28%
Appearance ([4]; 3 month): Off-white powder
Crystal Form ([4]; 3 month): IIb
Loss on Drying ([4]; 3 month): 0.18%
Related Substances Max Unknown Single Impurity ([4]; 3 month): 0.08%
Related Substances Total Impurity ([4]; 3 month): 0.28%
Content ([4]; 3 month, 131040 min): 97.6%
Appearance ([4]; 6 month): Off-white powder
Crystal Form ([4]; 6 month): IIb
Loss on Drying ([4]; 6 month): 0.19%
Related Substances Max Unknown Single Impurity ([4]; 6 month): 0.11%
Related Substances Total Impurity ([4]; 6 month): 0.27%
Content ([4]; 6 month, 263520 min): 97.8%
Appearance ([4]; 9 month): Off-white powder
Crystal Form ([4]; 9 month): IIb
Loss on Drying ([4]; 9 month): 0.24%
Related Substances Max Unknown Single Impurity ([4]; 9 month): 0.06%
Related Substances Total Impurity ([4]; 9 month): 0.24%
Content ([4]; 9 month, 394560 min): 97.9%
Appearance ([4]; 12 month): Off-white powder
Crystal Form ([4]; 12 month): IIb
Loss on Drying ([4]; 12 month): 0.20%
Related Substances Max Unknown Single Impurity ([4]; 12 month): 0.09%
Related Substances Total Impurity ([4]; 12 month): 0.22%
Content ([4]; 12 month, 525600 min): 97.8%
Appearance ([4]; 18 month): Off-white powder
Crystal Form ([4]; 18 month): IIb
Loss on Drying ([4]; 18 month): 0.16%
Related Substances Max Unknown Single Impurity ([4]; 18 month): 0.07%
Related Substances Total Impurity ([4]; 18 month): 0.26%
Content ([4]; 18 month, 789120 min): 98.0%
Appearance ([4]; 24 month): Off-white powder
Crystal Form ([4]; 24 month): IIb
Loss on Drying ([4]; 24 month): 0.25%
Related Substances Max Unknown Single Impurity ([4]; 24 month): 0.08%
Related Substances Total Impurity ([4]; 24 month): 0.29%
Content ([4]; 24 month, 1.0512e+06 min): 97.8%
stability study result in words [4]: gradually absorbs moisture during storage and converts to Crystal Form IIb
time of conversion to Crystal Form IIb ([5]; room temperature (58.6% RH)): ≤ 1 h
